Assay results from US20140275128A1, “METHOD OF PROVIDING OCULAR NEUROPROTECTION” (INOTEK PHARMACEUTICALS CORPORATION, priority 2013, published 2014).

Legend:
retinal ganglion cells [1] = assay: Ischemia-induced retinal ganglion cell death in Long-Evans rats (high IOP insult, histology); format: in vivo; settings: topical; for percent of RGC protected from ischemic insult (FIG. 4): two drops before 60 min ischemia at 110 mmHg, Compound A 2.5% ophthalmic suspension or 0.2% brimonidine tartrate, histology at 7 days; for retinal thinning of inner retina (GCL, IPL) after high IOP (FIG. 2): versus healthy contralateral eye, 7 days
Description: Treatment groups of 10 male Long Evans rats, six to eight weeks of age, were anesthetized by i.p. injection of a combination of ketamine (80 mg/kg) and xylazine (8 mg/kg). Additional ketamine was administered as needed to maintain appropriate anesthetic depth, and body temperature was maintained by use of an isothermal pad placed under the animal. Once under anesthesia, topical anesthetic (0.5% proparacaine hydrochloride, single drop) was applied to the cornea of the right eye. […] Several minutes after the second treatment, the anterior chamber of the right eye was cannulated with a 30G needle connected to an elevated reservoir of sterile Hanks balanced salt solution with a fluid level 59 inches above eye level (equivalent to a hydrostatic pressure of 110 mmHg) behind a closed stopcock. Five minutes after the second treatment (fifteen minutes after application of topical anesthetic), the stopcock was opened, and the rise in pressure was directly visualized by inflation of the globe. Animals that suffered an injury to the iris or cornea (beyond the single entry point) were excluded from the study. Sixty minutes after inducing the rise in pressure, the ischemic injury was terminated by closing the stopcock and removing the cannula. The needle entry wound was sealed with veterinary tissue adhesive and the animals allowed to recover from anesthesia before being returned to housing.
Seven days after ischemic injury animals were sacrificed by CO2 inhalation and globes dissected with the proximal optic nerves intact. The anterior chamber was removed, and the eyes were fixed for 30 minutes in 4% paraformaldehyde/PBS, followed by overnight incubation in 30% sucrose. Fixed eyes were trimmed of additional connective tissue and cut along a sagittal plane to generate a flat face for embedding, and the exposed retinal edge was attached to the sclera with tissue adhesive. The eye was infiltrated with increasing strengths of JB-4 embedding medium (glycol methacrylate; GMA), followed by embedding in JB-4 at 4° C. for sagittal sectioning. Optic nerves were co-embedded with their paired retina for transverse sectioning. Embedded tissues were sectioned through or near the optic nerve head at a thickness of 2 μm, and collected on slides for further analysis.
For histological analysis of retinas, sections were stained with 1% toluidine blue in absolute ethanol for 40 seconds, and cover slipped for microscopic examination. Images were captured using cellSens Dimension software on an Olympus BX61 upright microscope with a motorized stage, using a 20× objective and a resolution of 169 nm/pixel, and stitched together using the multiple image alignment procedure of the software. Five locations were chosen at random from across the retina, avoiding areas of extreme curvature or extreme histological disruption, and the thickness of the retinal layers was assessed, as follows: ganglion cells (GCL; count of large, round nuclei in layer near retinal surface in 100 μm region centered on chosen location), inner plexiform layer (IPL; distance from nuclei in ganglion cell layer to nuclei in inner nuclear layer), inner nuclear layer (INL), outer plexiform layer (OPL; distance from nuclei in INL to nuclei in outer nuclear layer), outer nuclear layer (ONL), and total retinal thickness (TR distance from retinal surface above nerve fiber layer to edge of ONL). […]

A2A adenosine receptor = target: T1, A2A adenosine receptor (Homo sapiens, UniProt P29274); assay: Adenosine A2A receptor binding, A1 > A2A selectivity; settings: ratio Ki A2A / Ki A1
T1 construct: expressed in transfected cells; host or cells: CHO cells
T1 sequence (P29274 whole entry): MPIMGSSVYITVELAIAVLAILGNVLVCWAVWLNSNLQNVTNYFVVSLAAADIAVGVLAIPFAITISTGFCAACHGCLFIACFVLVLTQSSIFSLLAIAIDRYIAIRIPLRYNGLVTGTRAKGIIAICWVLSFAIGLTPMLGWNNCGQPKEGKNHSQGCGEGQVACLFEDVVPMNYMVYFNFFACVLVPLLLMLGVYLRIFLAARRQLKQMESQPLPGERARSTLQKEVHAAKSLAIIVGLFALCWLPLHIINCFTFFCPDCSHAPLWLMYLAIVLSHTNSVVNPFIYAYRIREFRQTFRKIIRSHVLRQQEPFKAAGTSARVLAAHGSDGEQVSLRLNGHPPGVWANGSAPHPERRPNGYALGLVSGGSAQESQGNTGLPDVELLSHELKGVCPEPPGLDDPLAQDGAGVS
Description: The cell suspension is then homogenized in ice-cold hypotonic buffer (5 mM Tris/HCl, 2 mM EDTA, pH 7.4) and the homogenate is spun for 10 minutes (4° C.) at 1,000 g.

retinal ganglion cells [2] = settings: nerve crush, acute and chronic ocular hypertension models; cited from earlier work
[3] = tested on: nerve fiber layer of the retina (RNFL); settings: topical 0.2% solution, 12 months, compared to timolol; cited from earlier work
[4] = cited from earlier work; for study participants who discontinued the study due to adverse events: Low-Pressure Glaucoma Treatment Study

## O=[N+]([O-])OC[C@H]1O[C@@H](n2cnc3c(NC4CCCC4)ncnc32)[C@H](O)[C@@H]1O [Compound A, ((2R,3S,4R,5R)-5-(6-(cyclopentylamino)-9H-purin-9-yl)-3,4-dihydroxytetrahydrofuran-2-yl)methyl nitrate]
Retinal ganglion cells [1]
  percent of RGC protected from ischemic insult (FIG. 4): 100%
Retinal ganglion cells [1]; two drops before ischemia, relative to vehicle and brimonidine
  percentage of protection across retinal layers (FIG. 3): greater relative to the vehicle, and slightly greater than the effects of brimonidine
Retinal ganglion cells [1]; two drops before ischemia
  retinal thinning of inner retina (GCL, IPL) after high IOP (FIG. 2): blocked

## O=[N+]([O-])OC[C@H]1O[C@@H](n2cnc3c(NC4CCOC4)ncnc32)[C@H](O)[C@@H]1O (stereo partly drawn) [Compound D, ((2R,3S,4R,5R)-3,4-dihydroxy-5-(6-(tetrahydrofuran-3-ylamino)-9H-purin-9-yl)tetrahydrofuran-2-yl)methyl nitrate]
A2A adenosine receptor
  A1 > A2A SELECTIVITY [KiA2(nm)/KiA1(nm)]: >9434

## Brc1c(NC2=NCCN2)ccc2nccnc12 [brimonidine]
Retinal ganglion cells [2]
  RGC survival: improved RGC survival
[3]
  loss in thickness of the nerve fiber layer of the retina (RNFL): reduce the loss in thickness of the nerve fiber layer of the retina
[4]; 0.2% brimonidine, mean 30.0 month follow up, low pressure glaucoma, compared to timolol control
  loss of visual field: slow the loss of visual field
[4]
  study participants who discontinued the study due to adverse events: 28.3%
Retinal ganglion cells [1]
  percent of RGC protected from ischemic insult (FIG. 4): around 80%
Retinal ganglion cells [1]; two drops before ischemia
  retinal thinning of inner retina (GCL, IPL) after high IOP (FIG. 2): blocked

## CC(C)(C)NC[C@H](O)COc1nsnc1N1CCOCC1 [timolol]
[4]
  study participants who discontinued the study due to adverse events: 11.4%
